According to article PMC6580715 (Clinical Medicine Insights. Endocrinology and Diabetes, 2019):
No end group written: not given here.

Assays:
BRIN-BD11 beta-cells [1] = experiment: Beta-cell proliferation, Ki-67 staining, BRIN-BD11; type: cell-based, rodent; details: BRIN BD11, 10^-8 and 10^-6 M, n = 3
1.1B4 beta-cells = experiment: Beta-cell proliferation, Ki-67 staining, 1.1B4; type: cell-based, human; details: 1.1B4, 10^-8 and 10^-6 M, n = 3
DPP-4 = experiment: 50 mM triethanolamine/HCl; details: 37°C, up to 8 hours
BRIN-BD11 beta-cells [2] = experiment: In vitro insulin secretion from BRIN-BD11 beta-cells; type: cell-based, rodent; details: peptides 10^-12-10^-6 M, 20-minute incubation, insulin radioimmunoassay, n = 8, vs 16.7 mM glucose
BRIN-BD11 beta-cells [3] = experiment: Protection against cytokine-induced apoptosis, TUNEL, BRIN-BD11; type: cell-based, rodent; details: n = 3

| fragment found (DPP-4) | Substance | beta-cell proliferation vs control cultures (BRIN-BD11 beta-cells [1]) | beta-cell proliferation vs control cultures (1.1B4 beta-cells) | insulin secretion at 16.7 mM glucose (GSIS) (BRIN-BD11 beta-cells [2]) | cytokine-induced apoptosis vs cytokine cocktail control (BRIN-BD11 beta-cells [3]; BRIN BD11, 10^-8 M only, cytokine cocktail) | cytokine-induced apoptosis vs cytokine cocktail control (BRIN-BD11 beta-cells [3]; BRIN BD11, 10^-8 and 10^-6 M, cytokine cocktail (IL-1β, IFNγ, TNFα)) | protection against apoptosis compared with PYY(1-36) (BRIN-BD11 beta-cells [3]; BRIN BD11, same concentration, cytokine cocktail) |
| --- | --- | --- | --- | --- | --- | --- | --- |
|  | GLP-1: GLP-1 positive control (HAEGTFTSDVSSYLEGQAAKEFIAWLVKGR; ends and bridges not checked; UniProt P01275 98-127, looked up) [reference compound] | significantly (P < .05 to P < .001) increased | significantly (P < .05 to P < .001) increased |  |  |  |  |
| PYY(3-36)(Lys^12PAL), 8 h | YPIKPEAPGEDK(PAL)SPEELNRYYASLRHYLNLVTRQRY |  |  |  |  |  |  |
|  | YPIKPEAPGEDK(PAL)SPEELNRYYASLRHYLNLVTRQRY [PYY(1-36)(Lys^12PAL)] |  | significantly increased (P < .05 to P < .01) the proliferation of both beta-cell lines | had no impact on GSIS | barring PYY(1-36)(Lys^12PAL) at 10^-8 M | offered some protection against apoptosis | significantly (P < .05 to P < .01) less efficacious |
